pEC50, pIC50: −log10 of the molar value. ≈ marks a conversion by molar mass, not a printed value.
Experiments:
[1] = Inhibition of HSP90 by fluorescence polarization assay
[2] = system: HCT-116; test: Antiproliferative activity against human HCT116 cells; assay type: functional, cell-based
[3] = target: Heat shock protein HSP90 (Homo sapiens, UniProt P07900+P08238); test: Inhibition of HSP90 in human HCT-116 cells expressing V-Src-firefly luciferase fusion protein after 3 to 6 hrs; assay type: cell-based
[4] = Solubility of the compound; assay type: physicochemical
[5] = Half life in rat liver microsomes; assay type: ADME, Microsome
[6] = system: T98G; test: Antiproliferative activity against human T98G cells
[7] = Antiproliferative activity against human WM266.4 cells; conditions: wm 266-4
[8] = Antiproliferative activity against human U87MG cells; conditions: u-87mg atcc
[9] = system: DU-145; test: Antiproliferative activity against human DU145 cells
[10] = Antiproliferative activity against P-gp overexpressing human KBV1 cells; conditions: kb-v1
[11] = Plasma concentration in human MDA-MB-361 xenograft in vivo model at 50 mg/kg, po measured at 24 hrs post dose; assay type: ADME, organism-based; set-up: dose 50 mg/kg, route oral
[12] = Drug level in tumor of human MDA-MB-361 xenograft in vivo model at 50 mg/kg, po measured at 6 hrs post dose; assay type: ADME, organism-based, Neoplasm; set-up: dose 50 mg/kg, route oral; conditions: read-out: Drug uptake
[13] = system: A-375; test: Antiproliferative activity against human A375 cells
[14] = system: MDA-MB-361; test: Antiproliferative activity against human MDA-MB-361 cells
[15] = Plasma concentration human MDA-MB-361 xenograft in vivo model at 50 mg/kg, po measured at 6 hrs post dose; assay type: ADME, organism-based; set-up: dose 50 mg/kg, route oral
[16] = Antiproliferative activity against human KB 8.5 cells
[17] = system: BT-474; test: Antiproliferative activity against human BT474 cells
[18] = system: KB; test: Antiproliferative activity against human KB cells
[19] = Drug level in tumor of human MDA-MB-361 xenograft in vivo model at 50 mg/kg, po measured at 24 hrs post dose; assay type: ADME, organism-based, Neoplasm; set-up: dose 50 mg/kg, route oral; conditions: read-out: Drug uptake
[20] = system: NCI-H1975; test: Antiproliferative activity against human NCI-H1975 cells
[21] = system: A549; test: Antiproliferative activity against human A549 cells

Compound | pIC50 [1] | pEC50 [2] | IC50 [3] [nM] | solubility [4] [µg/mL] | half-life [5] [min] | further results
Cc1c2c(n3c1CC(=O)NCCCNc1cc-3ccc1C(N)=O)CC(C)(C)CC2=O | 5.17 | – | – | – | – | –
Cc1c2c(n3c1CCN(C(=O)CN)CC[C@H](C)Nc1cc-3ccc1C(N)=O)CC(C)(C)CC2=O | 7.05 | 6.00 | 917 | – | – | –
Cc1c2c(n3c1CCCNC(=O)C[C@H](C)Nc1cc-3ccc1C(N)=O)CC(C)(C)CC2=O | 6.47 | 5.48 | 1842 | – | – | –
CC(=O)NCCN1CC[C@H](C)Nc2cc(ccc2C(N)=O)-n2c(c(C)c3c2CC(C)(C)CC3=O)CC1=O | 6.39 | < 5.30 | > 5000 | > 100 | > 30 | –
CC(=O)N1CCc2c(C)c3c(n2-c2ccc(C(N)=O)c(c2)N[C@@H](C)CC1)CC(C)(C)CC3=O | 6.95 | – | 108 | – | – | –
Cc1c2c(n3c1CCN(C(=O)CCN)CC[C@H](C)Nc1cc-3ccc1C(N)=O)CC(C)(C)CC2=O | 6.70 | 5.31 | 6183 | > 100 | > 30 | –
CC(=O)NCCN1CCCc2c(C)c3c(n2-c2ccc(C(N)=O)c(c2)N[C@@H](C)C1=O)CC(C)(C)CC3=O | 6.62 | 4.75 | 15771 | > 100 | > 30 | –
Cc1c2c(n3c1CC(=O)N(CCN(C)C)CC[C@H](C)Nc1cc-3ccc1C(N)=O)CC(C)(C)CC2=O | 6.72 | 6.48 | 249 | > 100 | > 30 | –
Cc1c2c(n3c1CCN(C(=O)[C@H](C)N)CC[C@H](C)Nc1cc-3ccc1C(N)=O)CC(C)(C)CC2=O | – | – | – | > 100 | – | –
Cc1c2c(n3c1CCN(C(=O)[C@@H](C)N)CC[C@H](C)Nc1cc-3ccc1C(N)=O)CC(C)(C)CC2=O | 6.92 | – | – | > 100 | – | –
Cc1c2c(n3c1CCCNC(=O)[C@@H](C)Nc1cc-3ccc1C(N)=O)CC(C)(C)CC2=O | 6.57 | 6.76 | 123 | – | – | –
Cc1c2c(n3c1CCN(C(=O)CN(C)C)CC[C@H](C)Nc1cc-3ccc1C(N)=O)CC(C)(C)CC2=O | 6.85 | 6.77 | 109 | > 100 | 3 | –
CC(=O)N1CCCc2c(C)c3c(n2-c2ccc(C(N)=O)c(c2)N[C@@H](C)C1)CC(C)(C)CC3=O | 6.66 | 6.71 | 111 | 69 (≈ 153 µM) | 11 | –
CC(=O)NCC(=O)N1CCc2c(C)c3c(n2-c2ccc(C(N)=O)c(c2)N[C@@H](C)CC1)CC(C)(C)CC3=O | 6.85 | 5.81 | 674 | 5 (≈ 9.85 µM) | > 30 | –
Cc1c2c(n3c1CC(=O)NCC[C@H](C)Nc1cc-3ccc1C(N)=O)CC(C)(C)CC2=O | 6.67 | 6.09 | 522 | > 100 | > 30 | –
Cc1c2c(n3c1CCCNC[C@H](C)Nc1cc-3ccc1C(N)=O)CC(C)(C)CC2=O | – | – | – | > 100 | – | –
CC(=O)N1CCCc2c(C)c3c(n2-c2ccc(C(N)=O)c(c2)NC[C@H]1C)CC(C)(C)CC3=O | 6.02 | 5.72 | 1159 | > 100 | 12 | –
Cc1c2c(n3c1CCCN(CCN)C(=O)[C@H](C)Nc1cc-3ccc1C(N)=O)CC(C)(C)CC2=O | 5.93 | < 4.70 | > 20000 | > 100 | – | –
Cc1c2c(n3c1CCCN(C)C(=O)[C@H](C)Nc1cc-3ccc1C(N)=O)CC(C)(C)CC2=O | – | 7.10 | 60 | 34 (≈ 77.9 µM) | > 30 | –
Cc1c2c(n3c1CCCN[C@H](C)CNc1cc-3ccc1C(N)=O)CC(C)(C)CC2=O | 7.04 | 7.37 | 47 | > 100 | > 30 | –
Cc1c2c(n3c1CCCN(C(=O)[C@@H](C)N)[C@H](C)CNc1cc-3ccc1C(N)=O)CC(C)(C)CC2=O | 6.26 | < 5.30 | > 5000 | > 100 | > 30 | –
COCCN1CC[C@H](C)Nc2cc(ccc2C(N)=O)-n2c(c(C)c3c2CC(C)(C)CC3=O)CC1=O | 6.65 | 6.44 | 108 | > 100 | > 30 | –
Cc1c2c(n3c1CC(=O)N(C)CC[C@H](C)Nc1cc-3ccc1C(N)=O)CC(C)(C)CC2=O | 6.81 | 6.61 | 160 | > 100 | > 30 | –
Cc1c2c(n3c1CC(=O)N(C(C)C)CC[C@H](C)Nc1cc-3ccc1C(N)=O)CC(C)(C)CC2=O | 6.22 | 6.06 | 278 | > 100 | 12 | –
Cc1c2c(n3c1CCCNC(=O)[C@H](C)Nc1cc-3ccc1C(N)=O)CC(C)(C)CC2=O | 7.09 | – | 79 | > 100 | > 30 | pIC50 [6]: 7.38; pIC50 [7]: 7.04; pIC50 [8]: 7.10; pIC50 [9]: 7.35; pIC50 [10]: < 6.00; concentration at 24 h [11]: 8 ng/mL; concentration at 6 h [12]: 2130 ng/g; pIC50 [13]: 7.64; pIC50 [14]: 6.95; concentration at 6 h [15]: 146 ng/mL; pIC50 [16]: 7.31; pIC50 [17]: 7.64; pIC50 [18]: 7.66; concentration at 24 h [19]: 1270 ng/g; pIC50 [20]: 7.33; pIC50 [21]: 7.64
Cc1c2c(n3c1CCCN(C(=O)CN(C)C)[C@H](C)CNc1cc-3ccc1C(N)=O)CC(C)(C)CC2=O | < 5.30 | 5.49 | > 5000 | > 100 | > 30 | –
